# US20250084074A1, “SUBSTITUTED HETEROCYCLES AS HSET INHIBITORS” (MERCK PATENT GMBH, priority 2022, published 2025)
# Biological target: HSET full length protein (Homo sapiens (Human), UniProt Q9BW19)
# Experiment: HSET ADP-Glo Assay S - 3 μM ATP
# Format: biochemical
# Conditions: 5 nM HSET, 70 μg/mL microtubule, 80 min at rt, read-out: COMBINED HSET ADP GLO IC50
# Method in brief: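 ADP-Glo luminescence read-out: ATPase reaction at 3 μM ATP, 80 min at room temperature, after a 10 min compound preincubation. Enzyme was full-length human HSET at 5 nM, stimulated by 70 μg/mL paclitaxel-stabilised bovine microtubules in HEPES pH 6.8 buffer with MgCl2, EGTA, Triton X-100 and DTT.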
# HSET full length protein, sequence (Q9BW19 whole entry): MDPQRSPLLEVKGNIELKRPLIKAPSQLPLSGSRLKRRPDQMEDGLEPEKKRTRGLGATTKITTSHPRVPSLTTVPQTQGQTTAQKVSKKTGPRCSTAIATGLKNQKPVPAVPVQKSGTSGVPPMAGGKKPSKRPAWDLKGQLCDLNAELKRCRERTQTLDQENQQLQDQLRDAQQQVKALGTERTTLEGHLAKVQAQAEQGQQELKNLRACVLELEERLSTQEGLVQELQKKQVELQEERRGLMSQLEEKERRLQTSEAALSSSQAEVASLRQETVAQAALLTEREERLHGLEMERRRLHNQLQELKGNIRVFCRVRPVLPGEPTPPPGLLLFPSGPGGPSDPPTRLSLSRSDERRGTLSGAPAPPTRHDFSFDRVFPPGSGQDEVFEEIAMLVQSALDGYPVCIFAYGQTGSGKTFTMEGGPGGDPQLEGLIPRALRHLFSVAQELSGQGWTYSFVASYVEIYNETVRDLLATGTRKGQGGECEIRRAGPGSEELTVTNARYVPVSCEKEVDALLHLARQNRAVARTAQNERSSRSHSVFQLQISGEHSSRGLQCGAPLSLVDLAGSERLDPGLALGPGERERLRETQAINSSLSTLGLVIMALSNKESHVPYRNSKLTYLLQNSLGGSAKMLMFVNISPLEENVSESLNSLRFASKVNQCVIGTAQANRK
row,Structure (SMILES),IC50 [nM]
1,"Cc1nc(-c2ccc3ccnc(NC4CN(C(=O)Nc5nc(C)c(C(=O)OC(C)(C)C)s5)C4)c3c2)no1 [Example 230, tert-Butyl 4-methyl-2-[[3-[[7-(5-methyl-1,2,4-oxadiazol-3-yl)-1-isoquinolyl]amino]azetidine-1-carbonyl]amino]thiazole-5-carboxylate]",2
2,"Cc1nc(-c2cccc(C(=O)NC3CN(C(=O)Nc4nc(C)c(C(=O)OC(C)(C)C)s4)C3)c2)no1 [Example 228, tert-Butyl 4-methyl-2-[[3-[[3-(5-methyl-1,2,4-oxadiazol-3-yl)benzoyl]amino]azetidine-1-carbonyl]amino]thiazole-5-carboxylate]",86
3,"CCCOC(=O)c1sc(NC(=O)CCNc2nccc3ccc(C)cc23)nc1C [Example 280, Propyl 4-methyl-2-[3-[(7-methyl-1-isoquinolyl)amino]propanoyl-amino]thiazole-5-carboxylate]",141
4,Cc1nc(N(C)C(=O)C[C@H](CC#N)NC(=O)c2cccc(-c3cnn(C)c3)c2)sc1C(=O)OC(C)C [Example 205],4400
5,CCCOC1(c2sc(NC(=O)CCNc3nccc4ccc(-c5noc(C)n5)cc34)nc2C)COC1 [Example 84],57
6,"Cc1nc(-c2ccc3ccnc(N[C@H]4CCN(C(=O)Nc5nc(C)c(C(=O)OC(C)(C)C)s5)C4)c3c2)no1 [Example 226, tert-Butyl 4-methyl-2-[[(3S)-3-[[7-(5-methyl-1,2,4-oxadiazol-3-yl)-1-isoquinolyl]amino]pyrrolidine-1-carbonyl]amino]thiazole-5-carboxylate]",12
7,CCOC(=O)n1cc(NC(=O)[C@@H](O)CNC(=O)c2cccc(-c3cnn(C)c3)c2)nc1C [Example 271],4000
8,"COCCCCOC(=O)c1sc(NC(=O)CCNC(=O)c2cccc(-c3noc(C)n3)c2)nc1C [Example 69, 4-Methoxybutyl 4-methyl-2-(3-(3-(5-methyl-1,2,4-oxadiazol-3-yl)benzamido)propanamido)thiazole-5-carboxylate]",50
9,"CCOC(=O)c1sc(NC(=O)C[C@@H](C)NC(=O)c2cccc(-c3noc(C)n3)c2)nc1C [Example 142, Ethyl-(R)-4-methyl-2-(3-(3-(5-methyl-1,2,4-oxadiazol-3-yl)benzamido)butanamido)thiazole-5-carboxylate]",288
10,"CCCOC(=O)c1sc(NC(=O)[C@H]2C[C@@H](NC(=O)c3cccc(-c4noc(C)n4)c3)CN2C)nc1C [Example 235, Propyl 4-methyl-2-((2R,4R)-1-methyl-4-(3-(5-methyl-1,2,4-oxadiazol-3-yl)benzamido)pyrrolidine-2-carboxamido)thiazole-5-carboxylate]",6780
11,"Cc1nc(-c2ccc3ccnc(N[C@H]4C[C@@](O)(C(=O)Nc5nc(C)c(C(C)(C)C)s5)C4)c3c2)no1 [Example 221, (1 r,3r)-N-(5-(tert-butyl)-4-methylthiazol-2-yl)-1-hydroxy-3-((7-(5-methyl-1,2,4-oxadiazol-3-yl)isoquinolin-1-yl)amino)cyclobutane-1-carboxamide]",133
12,"Cc1nc(-c2cccc(C(=O)NCCC(=O)Nc3nc(C)c(C(=O)OC4CCCCC4)s3)c2)no1 [Example 124, Cyclohexyl-4-methyl-2-(3-(3-(5-methyl-1,2,4-oxadiazol-3-yl)benzamido)propanamido)thiazole-5-carboxylate]",14
13,COC(=O)c1sc(N(C)C(=O)C[C@@H](CC(=O)O)NC(=O)c2cccc(-c3noc(C)n3)c2)nc1C [Example 217],7300
14,"Cc1nc(-c2ccc3ccnc(N[C@H]4C[C@@H](C(=O)Nc5nc(C)c(C(=O)OC(C)(C)C)s5)C4)c3c2)no1 [Example 110, tert-Butyl 4-methyl-2-[[3-[[7-(5-methyl-1,2,4-oxadiazol-3-yl)-1-isoquinolyl]amino]cyclobutanecarbonyl]amino]thiazole-5-carboxylate]",8
15,"CNCCC[C@@H](CC(=O)Nc1nc(C)c(C(=O)O)s1)Nc1nccc2ccc(-c3noc(C)n3)cc12 [Example 169, (S)-4-methyl-2-(3-((7-(5-methyl-1,2,4-oxadiazol-3-yl)isoquinolin-1-yl)amino)-6-(methylamino)hexanamido)thiazole-5-carboxylic acid]",265
16,"CCCOC(=O)c1sc(NC(=O)[C@H](CNc2nccc3ccc(-c4noc(C)n4)cc23)OC)nc1C [Example 186, Propyl (S)-2-(2-methoxy-3-((7-(5-methyl-1,2,4-oxadiazol-3-yl)isoquinolin-1-yl)amino)propanamido)-4-methylthiazole-5-carboxylate]",30
17,CCCOC(=O)n1cc(NC(=O)[C@H](O)CNC(=O)c2cccc(-c3cnn(C)c3)c2)nc1C [Example 268],950
18,"Cc1nc(NC(=O)CCNC(=O)c2cccc(-c3nnn(C)n3)c2)sc1C(=O)OC(C)C [Example 40, Isopropyl 4-methyl-2-[3-[[3-(2-methyltetrazol-5-yl)benzoyl]amino]propanoylamino]thiazole-5-carboxylate]",10
19,Cc1nc(N(C)C(=O)C[C@@H](CC#N)NC(=O)c2cccc(-c3cnn(C)c3)c2)sc1C(=O)OC(C)C [Example 206],9300
20,"COCCOC(=O)c1sc(NC(=O)CCNC(=O)c2cccc(-c3noc(C)n3)c2)nc1C [Example 67, 2-Methoxyethyl 4-methyl-2-(3-(3-(5-methyl-1,2,4-oxadiazol-3-yl)benzamido)propanamido)thiazole-5-carboxylate]",419
21,"COC(=O)c1sc(NC(=O)C[C@H](CC#N)NC(=O)c2cccc(-c3noc(C)n3)c2)nc1C [Example 197, Methyl 2-[(3S)-4-cyano-3-{[3-(5-methyl-1,2,4-oxadiazol-3-yl)phenyl]formamido}, butanamido]-4-methyl-1,3-thiazole-5-carboxylate]",135
22,"CCOC(=O)c1sc(NC(=O)CCNC(=O)c2cc(C(=O)OC)ccc2Cl)nc1C [Example 12, Ethyl 2-[3-[(2-chloro-5-methoxycarbonyl-benzoyl)amino]propanoylamino]-4-methyl-thiazole-5-carboxylate]",1100
23,"CCOC(=O)c1sc(NC(=O)C(C)CNC(=O)c2cccc(-c3noc(C)n3)c2)nc1C (stereo not drawn) [Example 145, Ethyl-4-methyl-2-(2-methyl-3-(3-(5-methyl-1,2,4-oxadiazol-3-yl)benzamido)propanamido)thiazole-5-carboxylate]",5480
24,Cc1nc(-c2cccc(C(=O)NCCC(=O)Nc3nc(C)c(C(=O)OC(C)(C)C)s3)c2F)no1 [Example 279],860
25,"CCOC(=O)c1sc(NC(=O)[C@@H](O)CNC(=O)c2cccc(C)c2)nc1C [Example 8, Ethyl (S)-2-(2-hydroxy-3-(3-methylbenzamido)propanamido)-4-methylthiazole-5-carboxylate]",1210
26,"CNCCC[C@@H](CC(=O)Nc1nc(C)c(C(C)(C)C)s1)NC(=O)c1cc(Cl)cc(-c2noc(C)n2)c1 [Example 157, (S)-N-(1-((5-(tert-butyl)-4-methylthiazol-2-yl)amino)-6-(methylamino)-1-oxohexan-3-yl)-3-chloro-5-(5-methyl-1,2,4-oxadiazol-3-yl)benzamide]",373
27,"CCOC(=O)c1cnc(NC(=O)CCNC(=O)c2cccc(-c3noc(C)n3)c2)s1 [Example 61, Ethyl 2-(3-(3-(5-methyl-1,2,4-oxadiazol-3-yl)benzamido)propanamido)-thiazole-5-carboxylate]",819
